Laboratory results: patent US20190105261A1, “METHODS AND COMPOSITIONS FOR TOPICAL DELIVERY” (Illustris Pharmaceuticals, Inc., priority 2017, published 2019)

Experiments:
[1] = Sodium salicylate penetration into mid-dermal grafts, OD290 (Example 21); settings: 1% sodium salicylate, 12-20 hours
Experimental: Replicates of mid-dermal grafts (grafts and punches for flux rig per Illustris sops), were employed in a transcutaneous flux rig per relevant protocols. […] Flux was continued for 12-20 hours with samples applied and left on donor surfaces.

[2] = 1 wt. % minocycline, in vitro
Experimental: Delivery of minocycline into porcine skin in vitro was measured and compared to delivery of minocycline from a composition of minocycline in saline (i.e, with no decoy molecule). Compositions were prepared containing of 1 wt. % minocycline and 1% of decoy molecule of hyaluronic acid with three molecular weights: 10,000 Da mean, 20,000 Da mean, and 30,000 Da mean. A control formulation containing 1 wt % minocycline in saline was also prepared

[3] = 12-20 hours
Experimental: Porcine buccal tissue was harvested and cleaned of additional tissue. Punch biopsies (n=4 each) were obtained and employed in a transcutaneous flux rig per relevant protocols. […] Flux was continued for 12-20 hours with samples applied and left on donor surfaces.

[4] = in vivo, po; cited from earlier work
[5] = Oral sildenafil bioavailability and assumed tissue concentration; settings: assuming uniform tissue distribution, average 75 kg male
[6] = 1% sildenafil, 12-20 hours
Source text: Replicates of mid-dermal grafts were employed in a transcutaneous flux rig per relevant protocols.

[7] = Gabapentin delivery into porcine skin grafts, UPLC-MS; assay type: in vitro ADME; settings: 1% gabapentin, 12-20 hours
Experimental: Delivery of gabapentin with hyaluronic acid into skin in vitro was measured using porcine skin grafts, and compared to delivery of gabapentin from a composition of gabapentin in saline (with no decoy molecule). Groups consisted of A) 1% gabapentin in saline (n=8 replicates), B) 1% gabapentin plus 1% sodium hyaluronate decoy of 3,000 Da in saline (n=8 replicates) or C) saline alone (n=8 replicates) in donor cells.
Briefly, tissues were incubated overnight in 0.5 mL of 50% acetonitrile in deionized water at 55° C. with agitation. Calibration standards and tissue extraction solvent samples were diluted 10× in deionized water before analysis. Diluted standards and samples were analyzed at 1 μL injection volumes. Concentrations were reported as μg/g of gabapentin in tissue.

## O=C([O-])c1ccccc1O.[Na+] [Sodium salicylate, sodium salicylate]
[1]
  OD290 above saline (sodium salicylate in skin homogenate): 0.0165 AU

## CN(C)c1ccc(O)c2c1C[C@H]1C[C@H]3[C@H](N(C)C)C(O)=C(C(N)=O)C(=O)[C@@]3(O)C(O)=C1C2=O [minocycline]
[2]
  penetration of minocycline into porcine skin: low native penetration

## O=C(O)c1ccccc1O [salicylate alone, salicylate]
[3]
  salicylate penetration through buccal tissue versus saline alone: not statistically significant over saline alone

## CCCc1nn(C)c2c(=O)[nH]c(-c3cc(S(=O)(=O)N4CCN(C)CC4)ccc3OCC)nc12 [Sildenafil alone, sildenafil]
[4]
  bioavailability: 41%
[5]
  tissue concentration at currently approved therapeutic dose: 0.137 ug sildenafil per g of tissue
[6]
  sildenafil tissue concentration: not detectable

## NCC1(CC(=O)O)CCCCC1 [gabapentin alone, gabapentin]
[7]
  tissue levels of gabapentin: 0.09 μg of gabapentin per gram of tissue
